Some test systems named below: 786-0 renal; MALME-3M melanoma; SF-295 CNS; SNB-78 CNS; SR leukemia; SK-MEL-2 melanoma; DLD-1 colon; A549 NSCLC; HCT-15 colon; DMS 273 small cell lung; HCC-2998 colon.
Common to all, as to assay: NCI tumour cell line growth inhibition, 48 h

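Where inhibition never reached the appropriate level, the endpoint shown equals the highest concentration tested. Otherwise, values were interpolated linearly from a five-concentration, 48-hour dose response in 96-well plates. GI50 = concentration required for 50% inhibition of growth. TGI is the concentration that stops growth completely.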

`CCc1ccccc1NC(=O)C(=O)C(C#N)c1c(Cl)cccc1Cl` (stereo not drawn): the TGI in the assay on 786-0 renal, with MALME-3M melanoma, in the assay on SF-295 CNS, in the assay on SNB-78 CNS, in the assay on SR leukemia and in the assay with SK-MEL-2 melanoma was more than 100 µM in each case. Besides, the TGI in the assay with DLD-1 colon, with A549 NSCLC, in the assay with HCT-15 colon and in the assay with DMS 273 small cell lung was more than 100 µM in each case.
Regarding `O=C(O)CCSC(=O)Nc1ccccc1`, the TGI in the assay on 786-0 renal, in the assay with SF-295 CNS, with SNB-78 CNS, in the assay on SR leukemia, with SK-MEL-2 melanoma and with DLD-1 colon was more than 100 µM in each case. Further, the TGI in the assay on A549 NSCLC, in the assay on HCC-2998 colon, with HCT-15 colon and in the assay on DMS 273 small cell lung was more than 100 µM throughout.
On to `O=C1CCc2ccc(O)c(c2)Oc2ccc(cc2)[C@@H]2O[C@@H]2CO1`, for which the TGI in the assay on 786-0 renal was more than 100 µM; in the assay with MALME-3M melanoma, 62.1 µM; in the assay on SF-295 CNS, more than 100 µM; with SR leukemia it was more than 100 µM; in the assay with SK-MEL-2 melanoma, more than 100 µM; in the assay with DLD-1 colon, more than 100 µM. The TGI with A549 NSCLC and with HCC-2998 colon was more than 100 µM in each case.
As for `C=CCC1C(=O)CC2(C)C(CC=C)C(=O)CC12C` (stereo not drawn), the TGI in the assay on 786-0 renal, in the assay with MALME-3M melanoma, in the assay with SF-295 CNS, in the assay on SR leukemia, with SK-MEL-2 melanoma and in the assay with DLD-1 colon was more than 100 µM in each case. For the same compound, the TGI in the assay with A549 NSCLC, in the assay with HCC-2998 colon, in the assay on HCT-15 colon and in the assay with DMS 273 small cell lung was more than 100 µM each time.
Turning to `O=C(OCc1ccccc1)n1cccc1`, the TGI in the assay on 786-0 renal, in the assay on MALME-3M melanoma, with SF-295 CNS, in the assay with SNB-78 CNS, in the assay with SR leukemia and in the assay with SK-MEL-2 melanoma was more than 100 µM each time. In addition, the TGI in the assay with DLD-1 colon, in the assay on A549 NSCLC, in the assay with HCC-2998 colon and with DMS 273 small cell lung was more than 100 µM throughout.
On to `N#CC1=C(c2ccccc2)OC2(N)OC(c3ccccc3)=C(C#N)C12C#N` (stereo not drawn), for which the TGI with 786-0 renal, in the assay on MALME-3M melanoma, in the assay on SF-295 CNS, in the assay with SNB-78 CNS, in the assay with SK-MEL-2 melanoma and with DLD-1 colon was more than 100 µM in each case. The TGI in the assay on A549 NSCLC, with HCC-2998 colon, in the assay on HCT-15 colon and in the assay on DMS 273 small cell lung was more than 100 µM each time.
As for `CC(=O)[CH-]C(=O)c1ccccc1.CC(=O)[CH-]C(=O)c1ccccc1.CC(=O)[CH-]C(=O)c1ccccc1.[Br-].[Zr+4]`, the GI50 with 786-0 renal is 67.1 µM; in the assay with MALME-3M melanoma, 20.2 µM; with SF-295 CNS, 33.8 µM; in the assay on SK-MEL-2 melanoma, 38.5 µM; in the assay with DLD-1 colon, 28.1 µM; in the assay with A549 NSCLC, more than 100 µM. Moreover, the GI50 in the assay with HCT-15 colon was 89.7 µM. Besides, the TGI with 786-0 renal was more than 100 µM; in the assay with MALME-3M melanoma, 55.3 µM; with SF-295 CNS, more than 100 µM; in the assay on SK-MEL-2 melanoma, more than 100 µM; in the assay on DLD-1 colon, more than 100 µM; in the assay with A549 NSCLC, more than 100 µM. The same compound showed a TGI in the assay with HCT-15 colon of more than 100 µM.
With `C/C=C(\C)C(=O)O[C@@H]1C=CC(=O)O[C@H]1CNC(=O)[C@H](C)O`, the GI50 was 23.6 µM with 786-0 renal; 15 µM in the assay with MALME-3M melanoma; 27.7 µM with SF-295 CNS; 6.78 µM in the assay on SR leukemia; 20 µM with SK-MEL-2 melanoma; 30.5 µM in the assay with A549 NSCLC. The GI50 in the assay with HCC-2998 colon is 20.4 µM; in the assay with HCT-15 colon it was 18.5 µM. Moreover, the TGI in the assay on 786-0 renal is 73.5 µM; in the assay with MALME-3M melanoma it was 32.8 µM; with SF-295 CNS, more than 66.7 µM; with SR leukemia it was 48.6 µM; in the assay on SK-MEL-2 melanoma, 48.5 µM; in the assay on A549 NSCLC, more than 88.4 µM. For the same compound, the TGI in the assay on HCC-2998 colon is 40.9 µM; with HCT-15 colon it was 45.4 µM.
Turning to `O=C(O)c1[nH]c2c([N+](=O)[O-])cc([N+](=O)[O-])cc2c1C(=O)O`, the TGI in the assay on 786-0 renal, in the assay with MALME-3M melanoma, in the assay with SF-295 CNS, in the assay with SR leukemia, in the assay with SK-MEL-2 melanoma and in the assay with A549 NSCLC was more than 100 µM throughout. Further, the TGI in the assay on HCC-2998 colon and in the assay on HCT-15 colon was more than 100 µM in each case.
With `CC(C)(C)OC1=C(OC(C)(C)C)C(O)(c2ccc(Cl)cc2)C1=O` (stereo not drawn), the TGI in the assay with 786-0 renal, in the assay with MALME-3M melanoma, in the assay on SF-295 CNS, with SNB-78 CNS, in the assay on SR leukemia and with DLD-1 colon was more than 100 µM each time. Further, the TGI in the assay with A549 NSCLC, with HCC-2998 colon, in the assay on HCT-15 colon and in the assay on DMS 273 small cell lung was more than 100 µM in each case.
For the compound `O=C(COc1cccc(/C=C2\Oc3ccc4ccccc4c3C2=O)c1)c1ccc([N+](=O)[O-])cc1`, the GI50 was 23.6 µM in the assay with 786-0 renal; 14.7 µM in the assay on MALME-3M melanoma; 57.4 µM with SF-295 CNS; 0.305 µM in the assay with SR leukemia; more than 100 µM with SK-MEL-2 melanoma; more than 100 µM in the assay on A549 NSCLC. For the same compound, the GI50 in the assay with HCC-2998 colon was 15.7 µM; with HCT-15 colon it was 12.3 µM. Further, the TGI is 62.3 µM in the assay on 786-0 renal; 43 µM with MALME-3M melanoma; more than 100 µM in the assay on SF-295 CNS; more than 100 µM with SR leukemia; more than 100 µM with SK-MEL-2 melanoma; more than 100 µM with A549 NSCLC. For the same compound, the TGI was more than 100 µM in the assay on HCC-2998 colon and 30.9 µM in the assay with HCT-15 colon.
With `Nc1nc(N)c(-c2ccc(Cl)c(Cl)c2)c(CP(Cl)(Cl)(Cl)Br)n1`, the GI50 with 786-0 renal is 14.6 µM; in the assay with MALME-3M melanoma, 18.4 µM; with SF-295 CNS, 6.7 µM; in the assay on SR leukemia it was 10.2 µM; in the assay with SK-MEL-2 melanoma, 17.9 µM; with A549 NSCLC, 5.37 µM. Further, the GI50 with HCC-2998 colon is 19.9 µM; in the assay on HCT-15 colon, 4.26 µM. Moreover, the TGI is more than 100 µM in the assay with 786-0 renal; 72.1 µM with MALME-3M melanoma; more than 100 µM in the assay with SF-295 CNS; more than 100 µM with SR leukemia; 48.7 µM in the assay on SK-MEL-2 melanoma; more than 100 µM in the assay on A549 NSCLC. The TGI in the assay on HCC-2998 colon and in the assay with HCT-15 colon was more than 100 µM throughout.

For the origin of these results see PubChem BioAssay (NCI).
